Experimental data reported in patent US8394355B2, “Use of UTP for the diagnosis of stenoses and other conditions of restricted blood flow” (P2 science Aps, priority 2009, dated 2013).

Tests used:
leg blood flow = conditions: cited from earlier work; for relative vasoactive potency (rank order): only for blood flows around 3.5 Lmin^−1
[1] = test system: infarct area during acute myocardial infarction; test: ADP or UTP infusion during myocardial infarction in pigs (unpublished); type: in vivo; conditions: infused during acute myocardial infarction, unpublished results
Description: This is clearly in contrast to previous findings, but is more clinically relevant as most cardiac patients are older. […] This conclusion is also supported by another study by the present inventor in pigs where ADP or UTP was infused during myocardial infarction. […] Therefore, the previous assumptions in patent application WO 2007/065437 relating to the regulation of purinergic receptor activity to modulate vascular tone, particularly for treating hemodynamic conditions by overriding vasoconstriction activity, which could potentially have clinical applications for treatment with UTP agonists or antagonists, is incorrect.

[2] = test system: pulmonary and systemic circulation of healthy female pigs; test: Systemic (central intravenous) nucleotide infusion in pigs, hemodynamic response; type: in vivo; conditions: for increase in CO (cardiac output): FIG. 7b; for increase in HR from baseline: FIG. 7c; for decrease in SV (stroke volume): FIG. 7d; for MAP lowered by, from baseline: p<0.05, FIG. 7a; for infusion rate at target MAP: target ~50% reduction in baseline MAP, right atrium infusion
Method: In the present study, the hemodynamic response in the pulmonary and systemic circulation was tested, as well as the effect of central intravenous infusions of ATP, ADP, ADO, and UTP on the heart.
Infusion rates were aimed at exerting a pronounced systemic response in the lowering of arterial blood pressure, but avoiding a total circulatory collapse.
Methods: 10 healthy female pigs (Department of Experimental Medicine and Surgery, University of Copenhagen, Denmark) bred as a combination of the Danish Landrace (⅓) and Yorkshire (⅔), with a medium weight of 41±2 kg were investigated.
Mean arterial blood pressure (MAP) was obtained from the catheter in arcus aorta with the transducer (Pressure Monitoring Kit, Baxter, Deerfield, Ill., USA) positioned at the level of the heart. The left femoral artery was subsequently exposed and an ultrasound doppler probe attached for peripheral femoral artery flow measurements (CM-4000, Cardiomed, Norway). MAP, HR and peripheral flow were monitored and data continuously collected using a PowerLab system (Adinstruments, Australia). Cardiac Output (CO) was determined in triplicates by thermodilution, following an injection of 10 ml of cooled saline solution. Blood samples were withdrawn from catheters in aorta and the right atrium at baseline and at steady state when MAP had decreased maximally or by ˜50%. Calculated variables were: stroke volume of the heart (SV=CO/HR), pulmonary vascular resistance (PVR=(MPAP−PCWP)/CO), systemic vascular resistance (SVR=(MAP−MRAP)/CO), leg vascular conductance (LVC=LBF/(MAP−MRAP)), and arterial (aorta) and mixed venous (pulmonary artery) oxygen content (Hb*1.34*O2 saturation). In the calculation of LVC, MRAP was used as an estimate of mean femoral venous pressure (MFVP), as MRAP was found in a series of measurements to equal MFVP, as estimated in 10 supine pigs. As a potential estimate for myocardial oxygen demand the rate pressure product (RPP=MAP*HR) was also calculated.
Drug infusions: Each animal was administered the nucleotides ATP, UTP, ADP (Sigma, St. Louis, Mo., USA) and ADO (Item Development AB, Stocksund, Sweden), through the internal jugular vein in the right atrium, in random order following blinded allocation. The nucleotides and ADO were prepared by dissolving in saline so as to achieve the target concentration of ATP (40±0.5 μmol/min), ADP (43±8 μmol/min), UTP (up to 1,600 μmol/min), and ADO (73±7 μmol/min). The nucleotides were infused in increasing dosages at 2 min intervals aiming at reducing MAP by maximally ˜50%. Thereafter, that specific infusion rate was maintained for ˜3-5 min. After each intervention the animal rested for ˜30 min, allowing resting cardiovascular variables to be reestablished. Thereafter, a new cycle of nucleotide infusion was administered. In the present study we aimed to allow the drugs to reduce MAP by ˜50%, but without inducing a hemodynamic and circulatory collapse, to simulate a pronounced state of systemic vasodilation, as may be observed for instance in a shock condition.

For `Nc1ncnc2c1ncn2[C@@H]1O[C@H](COP(=O)(O)OP(=O)(O)O)[C@@H](O)[C@H]1O` [ADP], the “relative vasoactive potency (rank order)” value (leg blood flow) is given as 2.7, the “effect on infarct area” value [1] is given as “diminished it” and the “increase in CO (cardiac output)” value [2] is given as “not alter CO”. The “increase in HR from baseline” value [2] was 26.6±4.6%, the “decrease in SV (stroke volume)” value [2] was 21.1±5.6% and the “PVR reached during titration” value ([2]; dose dependent increase) was 7.3±1.2 Wood Unit. The “decrease in LBF (leg blood flow) from baseline” value ([2]; p<0.05) was 34.9±10.2%, the “decrease in SVR (systemic vascular resistance) from baseline” value ([2]; p<0.05) was 49.5±2.0% and the “increase in PVR” value ([2]; p<0.05) was 156.7±38.3%. The “MAP lowered by, from baseline” value [2] was 48.4±1.2% and the “infusion rate at target MAP” value [2] was 43.2 ± 7.7 µmol/min.
For `Nc1ncnc2c1ncn2[C@@H]1O[C@H](COP(=O)(O)O)[C@@H](O)[C@H]1O` [AMP], the “relative vasoactive potency (rank order)” value (leg blood flow) is listed as 1.7.
In the case of `Nc1ncnc2c1ncn2[C@@H]1O[C@H](COP(=O)(O)OP(=O)(O)OP(=O)(O)O)[C@@H](O)[C@H]1O` [ATP], the “blood flow increase, % of maximum in the leg during hard exercise” value (leg blood flow; local infusion) is given as 85%, the “relative vasoactive potency (rank order)” value (leg blood flow) is given as 100 and the “increase in CO (cardiac output)” value [2] is given as 35.1±6.9%. The “increase in HR from baseline” value [2] was 23.0±5.7%, the “decrease in SV (stroke volume)” value [2] was “did not significantly change SV” and the “decrease in LBF (leg blood flow) from baseline” value ([2]; p<0.05) was 22.7±4.2%. For the same compound, the “decrease in SVR (systemic vascular resistance) from baseline” value ([2]; p<0.05) was 61.6±2.1%, the “increase in LVC (leg vascular conductance) from baseline” value ([2]; p<0.05) was 44.7±8.7% and the “MAP lowered by, from baseline” value [2] was 47.4±1.7%. For the same compound, the “decrease in PVR (pulmonary vascular resistance) from baseline” value ([2]; pig, in vivo) was 37.8±4.9% and the “infusion rate at target MAP” value [2] was 40.2 ± 0.5 µmol/min.
